Experimental data published in the NIST ThermoML archive (doi:10.1016/j.fluid.2008.03.004).

Assay: xn = mol fraction of the nth substance listed
Settings: 101 kPa, Liquid; for speed of sound: Sing-around technique in a fixed-path interferometer

COC(C)(C)C [2-methoxy-2-methylpropane] + Cc1ccc(C)cc1
Settings	mass density, 295.65 K [kg/m3]	mass density, 298.15 K [kg/m3]	mass density, 300.65 K [kg/m3]	mass density, 303.15 K [kg/m3]	speed of sound, 298.15 K [m/s]	speed of sound, 300.65 K [m/s]	speed of sound, 303.15 K [m/s]	speed of sound, 305.65 K [m/s]
x1 = 0.051	–	851.161	848.97	846.775	1296.3	1286.1	1275.9	1265.7
x1 = 0.111	–	844.568	842.356	840.14	1282.7	1272.2	1261.8	1251.5
x1 = 0.199	–	834.598	832.351	830.102	1260.5	1249.9	1239.4	1228.9
x1 = 0.297	–	823.534	821.251	818.963	1235.5	1224.8	1214.2	1203.5
x1 = 0.394	–	812.151	809.83	807.503	1209.4	1198.7	1187.9	1177.3
x1 = 0.5	–	799.359	796.99	794.615	1180.1	1169.2	1158.4	1147.6
x1 = 0.591	790.564	788.159	785.75	783.333	1155.2	1144.2	1133.2	1122.3
x1 = 0.7	776.96	774.504	772.04	769.567	1124.7	1113.5	1102.4	1091.3
x1 = 0.799	763.998	761.487	758.97	756.446	1095.3	1084	1072.8	1061.6
x1 = 0.898	750.898	748.333	745.759	743.176	1066	1054.6	1043.3	1031.9
x1 = 0.949	744.102	741.507	738.9	736.284	1050.2	1038.8	1027.4	1016
x1 = 1	737.036	734.406	731.766	729.112	1036.9	1025.4	1013.9	1002.4
